The source of these data is US20210204539A1, “Method for Suppressing Freezing Damage and Composition for Preventing Freezing Damage” (Kyoto University, priority 2018, published 2021).

Each structure is given as a SMILES string.

For one data set, the target named is S1PR5 (Homo sapiens, UniProt Q9H228). The settings on record: reported; cited from earlier work.
In data set [1] the test system is cell line HepG2 derived from a human liver cancer. The experiment in a line: Cold damage suppression, HepG2 cultured at 4° C. for 24 hours, viability after rewarming by alamarBlue (Examples 1, 5, 6). The format is cell-based. The settings on record: HepG2, 4° C. 24 hours, compound 0 M to 50 μM, viability one hour after rewarming at 37° C. As to the method: Then, the culturing at 4° C. in a low temperature incubator was performed for 24 hours. After the culturing at low temperature for 24 hours, rewarming was carried out using a medium at 37° C., and the viability of cells one hour after the rewarming was determined by detecting enzyme activity using alamarBlue™. The compound concentration was varied from 0 M (Vehicle) to 50 μM, so that the concentration dependency of the compound was observed.
Using the compounds 1 and 3 to 7 synthesized by the above-described scheme, the cell line HepG2 derived from a human liver cancer was cultured under the presence of the respective compounds at low temperature, and cold damage suppression effects were assessed.
HepG2 cells were cultured at 37° C. so as to be at a density of 80 to 90%, and thereafter, the medium was replaced with a medium (DMEM) at 4° C. to which any one of the compounds 1 and 3 to 7 had been added preliminarily. Then, the culturing at 4° C. in a low temperature incubator was performed for 24 hours. After the culturing at low temperature for 24 hours, rewarming was carried out by a medium at 37° C., and the viability of cells one hour […] determined by detecting enzyme activity using alamarBlue™. The compound concentration was varied from 0 M (Vehicle) to 50 μM, so that the concentration dependency of the compound was observed. […]
(In general: Alamar Blue is a resazurin reagent that responds to reducing activity.)

Data set [2] has as its system human umbilical vascular endothelial cell line HUEhT-2. In words: Cold storage time versus viability, HUEhT-2 (Example 2). The format is cell-based. The note with it: HUEhT-2, 10 μM. As to the method: (§1) Then, the culturing at 4° C. in a low temperature incubator was performed. The cell viability one hour after the rewarming using a medium at 37° C. was determined by detecting enzyme activity with use of alamarBlue™. The relationship between the cold storage time and the viability was observed.

Data set [3] has as its system cell line HepG2 derived from a human liver cancer. In words: Cold storage time versus viability, HepG2 (Example 2). It is filed as cell-based. The settings on record: HepG2, 10 μM, 4° C., versus Vehicle. As to the method:
as §1

The next data set addresses S1PR1 (Homo sapiens, UniProt P21453). The note with it: reported; cited from earlier work.
Data set [4] relates to myocardium in the hearts of transplanted rats. In words: Rat heart 24-hour cold storage and ectopic transplantation, Masson's trichrome staining (Example 4). It is filed as in vivo, LEW rats. The note with it: UW solution with 10 μM, 24-hour cold storage at 4° C., one week after transplantation, versus Vehicle group. As to the method:
To each of 7 to 8 week-old LEW rats as recipients, laparotomy under general anesthesia was performed to expose the abdominal aorta and the vena cava. Then, the heart in cold storage was taken out of the UW solution, and ectopic transplantation was carried out, by end-to-side anastomosis between the pulmonary artery and the aorta of the donor and the abdominal vena cava and the aorta of the recipient, respectively, followed by laparotomy closure. The heart was removed one week after the transplantation, and the viable area and fibrotic area of myocardium in the heart were compared by using Masson's trichrome staining (N=5 in each group).

A further data set addresses S1PR2 (Homo sapiens, UniProt O95136). The settings on record: reported; cited from earlier work.
A further data set has as its system the cells. In words: Toxicity to the cells when administered at a time other than the low-temperature preservation. The note with it: e.g. during a normal-temperature preservation. The format is cell-based.
For data set [5], the system named is cells preserved at low temperature. In words: Cold damage suppression at varied timings of contact with the compound (Example 3). The format is cell-based. As to the method: Cells were cultured at 37° C. so as to be at a density of 80 to 90%, and thereafter, the medium was replaced with a medium at 4° C. Then, the culturing at 4° C. in a low temperature incubator was performed. […] The cell viability one hour after the rewarming using a medium at 37° C. was determined by detecting enzyme activity with use of alamarBlue™.

The target of the next data set is T1, S1PR4 (Homo sapiens, UniProt O95977).
T1 sequence (O95977 1-384): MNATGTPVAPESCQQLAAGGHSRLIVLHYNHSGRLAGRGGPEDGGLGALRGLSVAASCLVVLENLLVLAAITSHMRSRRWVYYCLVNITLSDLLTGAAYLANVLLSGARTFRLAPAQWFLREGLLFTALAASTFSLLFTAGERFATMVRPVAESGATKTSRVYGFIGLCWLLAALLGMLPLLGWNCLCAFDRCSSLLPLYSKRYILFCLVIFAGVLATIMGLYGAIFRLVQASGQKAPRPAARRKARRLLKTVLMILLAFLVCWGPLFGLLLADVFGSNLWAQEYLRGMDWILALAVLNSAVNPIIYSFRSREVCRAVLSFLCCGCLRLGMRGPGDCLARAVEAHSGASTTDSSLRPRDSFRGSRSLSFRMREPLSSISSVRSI
The settings on record: reported; cited from earlier work.

For a further data set, the system named is S1PR. The note with it: known; cited from earlier work.
Another data set concerns Flp-In™ CHO cell line. In words: Cold storage time versus viability, Flp-In CHO (Example 2). The format is cell-based. As to the method: as §1

Sequence of S1PR1 (P21453 whole entry, species assumed): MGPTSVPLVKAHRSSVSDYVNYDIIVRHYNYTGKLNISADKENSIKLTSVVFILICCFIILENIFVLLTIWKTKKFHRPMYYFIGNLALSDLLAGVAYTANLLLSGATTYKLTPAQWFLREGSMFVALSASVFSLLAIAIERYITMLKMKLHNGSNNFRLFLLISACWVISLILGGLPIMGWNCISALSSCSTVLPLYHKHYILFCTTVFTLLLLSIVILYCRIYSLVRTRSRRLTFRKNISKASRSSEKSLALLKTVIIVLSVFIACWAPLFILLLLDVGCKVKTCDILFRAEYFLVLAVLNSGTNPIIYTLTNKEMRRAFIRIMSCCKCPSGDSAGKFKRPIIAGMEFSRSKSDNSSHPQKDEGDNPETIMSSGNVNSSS
Sequence of S1PR2 (O95136 whole entry, species assumed): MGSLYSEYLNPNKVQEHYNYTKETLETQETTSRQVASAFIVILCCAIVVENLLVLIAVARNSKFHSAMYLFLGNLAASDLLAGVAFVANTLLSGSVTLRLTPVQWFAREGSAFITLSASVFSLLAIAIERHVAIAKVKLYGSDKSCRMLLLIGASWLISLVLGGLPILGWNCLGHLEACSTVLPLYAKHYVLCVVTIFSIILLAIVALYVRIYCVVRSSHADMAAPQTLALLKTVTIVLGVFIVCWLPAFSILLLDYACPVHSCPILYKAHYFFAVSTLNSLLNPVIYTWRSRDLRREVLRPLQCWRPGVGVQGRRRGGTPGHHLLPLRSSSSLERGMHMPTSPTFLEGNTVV
Sequence of S1PR5 (Q9H228 whole entry, species assumed): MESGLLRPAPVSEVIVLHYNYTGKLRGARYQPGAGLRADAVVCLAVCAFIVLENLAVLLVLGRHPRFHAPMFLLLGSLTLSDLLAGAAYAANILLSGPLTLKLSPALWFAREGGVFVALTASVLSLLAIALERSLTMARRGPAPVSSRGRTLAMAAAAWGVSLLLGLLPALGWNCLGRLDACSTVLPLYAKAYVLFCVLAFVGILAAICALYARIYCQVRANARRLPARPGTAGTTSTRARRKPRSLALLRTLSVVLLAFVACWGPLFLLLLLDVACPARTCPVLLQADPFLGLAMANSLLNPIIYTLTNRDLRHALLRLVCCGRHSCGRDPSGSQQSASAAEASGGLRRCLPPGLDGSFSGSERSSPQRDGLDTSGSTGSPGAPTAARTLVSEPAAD

Take `CC(C)(C)C(=O)/C(=N/c1ccc(Cl)cc1)NNc1ccc(Cl)cc1` [Compound 1, N-(4-chlorophenyl)-N′-(4-chlorophenylamino)-3,3-dimethyl-2-oxobutanamidine]: at S1PR5, the “inhibiting activity to S1PR5” value is given as “has an inhibiting activity”. For the same molecule, the “amelioration of the deterioration of cell viability during the low-temperature preservation (cold damage suppression)” value in data set [1] is recorded as “concentration-dependent amelioration”. The “amelioration of the deterioration of cell viability during the low-temperature preservation” value in data set [2] (4° C., versus Vehicle) was “amelioration of the deterioration of cell viability”; in [3], “amelioration of the deterioration of cell viability”; in the data set with Flp-In™ CHO cell line (10 μM, 4° C., versus Vehicle) it was “amelioration of the deterioration of cell viability”. In addition, the viability – broadly, a read-out of living cells in per cent, often relative to untreated cells – at 10 µM in data set [2] (Homo sapiens, Endothelial cell, 360 h, low-temperature preservation period 15 days) is greater than 50%; in the data set with Flp-In™ CHO cell line (Cricetulus griseus, 360 h, low-temperature preservation period 15 days), greater than 50%. The “inhibiting activity to S1PR1” value on S1PR1 is recorded as “has an inhibiting activity”. Also, the “fibrotic area of myocardium” value in data set [4] is reported as “less fibrotic one”. Moreover, in data set [4], the “viable area of myocardium” value is given as “more viable myocardium”. In addition, the “inhibiting activity to S1PR2” value on S1PR2 is listed as “has an inhibiting activity”. Besides, in the data set with the cells, the “toxicity to the cells” value is reported as “did not exhibit toxicity”. In addition, the “cold damage (deterioration of viability) suppression” value in data set [5] (10 μM added simultaneously with the start of the low-temperature preservation) is “could be suppressed”; in [5] (10 μM added to the medium before the start of the low-temperature preservation), “could be suppressed”; in data set [5] (10 μM added when the temperature was turned to 37° C. after the low-temperature preservation (Rewarm treat)), “not sufficiently suppressed”. On S1PR4, the “inhibiting activity to S1PR4” value was “has an inhibiting activity”. In addition, the S1PR antagonist result in the data set with S1PR is listed as “S1PR antagonists”.
As to `Cc1nn(C)c2nc(NNC(=O)Nc3cc(Cl)nc(Cl)c3)cc(C(C)C)c12` [Compound 2, N-(2,6-dichloro-4-pyridinyl)-2-[1,3-dimethyl-4-(1-methylethyl)-1H-pyrazolo[3,4-b]pyridin-6-yl]-hydrazinecarboxamide], the “amelioration of the deterioration of cell viability during the low-temperature preservation (cold damage suppression)” value in [1] is “concentration-dependent amelioration”. Further, in the data set with the cells, the “toxicity to the cells” value is “did not exhibit toxicity”. For the same molecule, in the data set with S1PR, the S1PR antagonist entry is listed as “S1PR antagonists”.
